According to patent US11306092B2, “Amino indole compounds useful as TLR inhibitors” (BRISTOL-MYERS SQUIBB COMPANY, priority 2017, dated 2022):

Key:
Assay type in all cases: cell-based
[1] = biological target: T1, human TLR7 (Homo sapiens, UniProt Q9NYK1); test: TLR7 inhibition reporter assay (HEK-Blue SEAP reporter); details: HEK-Blue cells overexpressing human TLR7; gardiquimod 7.5 μM; 22 hour incubation
T1 construct: host or cells: HEK-Blue cells
T1 sequence (Q9NYK1 27-1049): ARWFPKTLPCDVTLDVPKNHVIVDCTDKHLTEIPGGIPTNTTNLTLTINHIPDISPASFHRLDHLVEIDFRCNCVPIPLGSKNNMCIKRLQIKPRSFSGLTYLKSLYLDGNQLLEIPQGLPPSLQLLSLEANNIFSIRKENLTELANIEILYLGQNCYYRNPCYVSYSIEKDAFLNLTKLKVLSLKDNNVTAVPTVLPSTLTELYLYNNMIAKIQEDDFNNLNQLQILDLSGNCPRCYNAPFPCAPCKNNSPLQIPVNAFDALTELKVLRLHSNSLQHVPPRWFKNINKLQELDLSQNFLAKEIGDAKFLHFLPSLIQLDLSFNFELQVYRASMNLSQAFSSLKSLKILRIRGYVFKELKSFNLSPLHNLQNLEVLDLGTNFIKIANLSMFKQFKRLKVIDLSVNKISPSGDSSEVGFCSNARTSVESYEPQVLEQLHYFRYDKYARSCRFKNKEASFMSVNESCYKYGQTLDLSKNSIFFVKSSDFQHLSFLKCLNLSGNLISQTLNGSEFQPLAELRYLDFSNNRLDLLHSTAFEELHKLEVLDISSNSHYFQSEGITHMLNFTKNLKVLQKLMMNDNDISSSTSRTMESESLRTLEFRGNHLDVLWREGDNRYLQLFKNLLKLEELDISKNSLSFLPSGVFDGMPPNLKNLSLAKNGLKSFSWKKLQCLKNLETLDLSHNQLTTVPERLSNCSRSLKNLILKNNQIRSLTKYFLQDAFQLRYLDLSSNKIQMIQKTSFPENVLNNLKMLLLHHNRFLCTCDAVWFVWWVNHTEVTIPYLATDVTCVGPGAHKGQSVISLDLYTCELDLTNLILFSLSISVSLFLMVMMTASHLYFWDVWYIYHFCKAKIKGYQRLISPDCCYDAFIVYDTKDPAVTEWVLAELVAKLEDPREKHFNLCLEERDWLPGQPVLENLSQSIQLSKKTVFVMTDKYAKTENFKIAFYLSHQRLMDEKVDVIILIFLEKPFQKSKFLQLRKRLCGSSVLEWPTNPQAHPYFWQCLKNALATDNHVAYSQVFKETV
Outline: (§1)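 HEK-Blue cells overexpressing human TLR7, TLR8 or TLR9 carry a SEAP reporter driven by NF-κB/AP-1 sites. Compounds (0.05 nM–50 μM) were preincubated 30 min at room temperature, then cells were stimulated with gardiquimod 7.5 μM (TLR7), R848 15.9 μM (TLR8) or ODN2006 5 nM (TLR9) for 22 h at 37 °C.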

[2] = biological target: T2, human TLR8 (Homo sapiens, UniProt Q9NR97); test: TLR8 inhibition reporter assay (HEK-Blue SEAP reporter); details: HEK-Blue cells overexpressing human TLR8; R848 15.9 μM; 22 hour incubation
T2 construct: host or cells: HEK-Blue cells
T2 sequence (Q9NR97 27-1041): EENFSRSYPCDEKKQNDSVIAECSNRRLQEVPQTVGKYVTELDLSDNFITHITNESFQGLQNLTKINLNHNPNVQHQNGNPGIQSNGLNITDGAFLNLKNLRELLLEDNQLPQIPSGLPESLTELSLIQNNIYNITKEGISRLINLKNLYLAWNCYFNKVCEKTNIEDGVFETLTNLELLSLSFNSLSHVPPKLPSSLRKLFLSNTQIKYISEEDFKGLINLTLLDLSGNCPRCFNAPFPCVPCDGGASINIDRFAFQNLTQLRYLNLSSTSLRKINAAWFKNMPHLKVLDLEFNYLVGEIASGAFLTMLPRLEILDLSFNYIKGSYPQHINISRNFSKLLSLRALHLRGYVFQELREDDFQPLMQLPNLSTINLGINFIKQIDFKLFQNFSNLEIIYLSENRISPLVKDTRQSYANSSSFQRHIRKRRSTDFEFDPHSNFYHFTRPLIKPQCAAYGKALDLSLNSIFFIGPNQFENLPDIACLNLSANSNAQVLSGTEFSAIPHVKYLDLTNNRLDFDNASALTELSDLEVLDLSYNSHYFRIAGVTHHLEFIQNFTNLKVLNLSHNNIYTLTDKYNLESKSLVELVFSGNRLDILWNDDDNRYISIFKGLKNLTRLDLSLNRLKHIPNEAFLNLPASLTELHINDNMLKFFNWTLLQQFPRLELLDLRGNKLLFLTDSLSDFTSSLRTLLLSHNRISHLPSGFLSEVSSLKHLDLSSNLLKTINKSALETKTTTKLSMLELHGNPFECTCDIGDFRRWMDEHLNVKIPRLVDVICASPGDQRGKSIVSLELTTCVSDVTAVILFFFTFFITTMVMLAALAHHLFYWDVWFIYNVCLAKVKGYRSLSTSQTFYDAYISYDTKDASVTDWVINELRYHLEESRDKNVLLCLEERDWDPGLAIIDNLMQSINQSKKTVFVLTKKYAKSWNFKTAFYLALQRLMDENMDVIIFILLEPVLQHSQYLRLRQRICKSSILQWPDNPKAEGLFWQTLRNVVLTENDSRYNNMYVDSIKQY
Outline: as §1

[3] = biological target: T3, human TLR9 (Homo sapiens, UniProt Q9NR96); test: TLR9 inhibition reporter assay (HEK-Blue SEAP reporter); details: HEK-Blue cells overexpressing human TLR9; ODN2006 5 nM; 22 hour incubation
T3 construct: host or cells: HEK-Blue cells
T3 sequence (Q9NR96 26-1032): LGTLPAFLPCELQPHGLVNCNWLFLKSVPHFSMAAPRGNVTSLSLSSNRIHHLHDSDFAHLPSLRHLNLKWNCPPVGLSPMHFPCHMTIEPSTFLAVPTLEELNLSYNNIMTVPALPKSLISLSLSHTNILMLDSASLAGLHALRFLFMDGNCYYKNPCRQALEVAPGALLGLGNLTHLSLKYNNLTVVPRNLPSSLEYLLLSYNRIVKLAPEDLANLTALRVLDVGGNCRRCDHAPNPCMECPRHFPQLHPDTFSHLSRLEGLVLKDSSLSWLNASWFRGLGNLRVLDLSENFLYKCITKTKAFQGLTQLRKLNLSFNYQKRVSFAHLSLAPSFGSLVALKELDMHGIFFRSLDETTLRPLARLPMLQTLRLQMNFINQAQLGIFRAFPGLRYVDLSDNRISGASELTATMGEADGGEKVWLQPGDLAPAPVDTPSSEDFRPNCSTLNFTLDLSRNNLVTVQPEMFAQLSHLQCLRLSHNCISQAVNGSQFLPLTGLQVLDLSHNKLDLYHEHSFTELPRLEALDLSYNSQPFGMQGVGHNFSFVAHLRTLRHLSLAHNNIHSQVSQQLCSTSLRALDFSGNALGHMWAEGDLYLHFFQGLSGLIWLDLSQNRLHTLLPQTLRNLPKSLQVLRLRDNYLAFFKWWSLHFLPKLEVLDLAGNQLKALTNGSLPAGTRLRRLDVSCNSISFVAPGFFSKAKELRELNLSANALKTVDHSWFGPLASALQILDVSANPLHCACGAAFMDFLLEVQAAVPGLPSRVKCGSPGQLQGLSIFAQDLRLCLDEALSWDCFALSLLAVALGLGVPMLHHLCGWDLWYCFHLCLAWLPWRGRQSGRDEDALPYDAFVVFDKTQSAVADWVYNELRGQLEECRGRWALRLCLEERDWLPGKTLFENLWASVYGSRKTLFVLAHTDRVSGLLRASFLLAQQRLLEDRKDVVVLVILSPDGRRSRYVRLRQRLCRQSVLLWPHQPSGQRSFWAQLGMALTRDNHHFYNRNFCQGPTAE
Outline: as §1

Row | IC50 [1] | IC50 [2] | IC50 [3] | SMILES
1 | 3670 nM | 7880 nM | 225 nM | CCc1c(-c2ccnc(C)c2)[nH]c2ccc(N3CCN(C4CCN(CC)CC4)CC3)cc12 [Example 142, 3-ethyl-5-(4-(1-ethylpiperidin-4-yl)piperazin-1-yl)-2-(2-methylpyridin-4-yl)-1H-indole]
2 | 75 nM | 10 nM | 839 nM | CCc1c(-c2ccnc(OC)c2)[nH]c2ccc(N3CCN(C4CCN(C)CC4)CC3)cc12 [Example 143, 3-ethyl-2-(2-methoxypyridin-4-yl)-5-(4-(1-methylpiperidin-4-yl)piperazin-1-yl)-1H-indole]
3 | 4650 nM | 17900 nM | 227 nM | CCc1c(-c2ccnc(C)c2)[nH]c2ccc(N3CCN(C4CCN(C(C)C)CC4)CC3)cc12 [Example 147, 3-ethyl-5-(4-(1-isopropylpiperidin-4-yl)piperazin-1-yl)-2-(2-methylpyridin-4-yl)-1H-indole]
4 | 96 nM | 32 nM | 446 nM | CCc1c(-c2ccnc(OC)c2)[nH]c2ccc(N3CCN(C4CCN(CC)CC4)CC3)cc12 [Example 148, 3-ethyl-5-(4-(1-ethylpiperidin-4-yl)piperazin-1-yl)-2-(2-methoxypyridin-4-yl)-1H-indole]
5 | 83 nM | 11 nM | 755 nM | CCc1c(-c2ccnc(OC)c2)[nH]c2ccc(N3CCN(C4CCN(C(C)C)CC4)CC3)cc12 [Example 153, 3-ethyl-5-(4-(1-isopropylpiperidin-4-yl)piperazin-1-yl)-2-(2-methoxypyridin-4-yl)-1H-indole]
6 | 79 nM | 14 nM | 829 nM | CCc1c(-c2ccc(OC)c(OC)c2)[nH]c2ccc(N3CCN(C4CCN(C)CC4)CC3)cc12 [Example 154, 2-(3,4-dimethoxyphenyl)-3-ethyl-5-(4-(1-methylpiperidin-4-yl)piperazin-1-yl)-1H-indole]
7 | 4230 nM | 635 nM | 559 nM | CCc1c(-c2ccnc3[nH]ccc23)[nH]c2ccc(N3CCN(C4CCN(C(C)C)CC4)CC3)cc12 [Example 157, 4-(3-ethyl-5-(4-(1-isopropylpiperidin-4-yl)piperazin-1-yl)-1H-indol-2-yl)-1H-pyrrolo[2,3-b]pyridine]
8 | 5640 nM | 6010 nM | 684 nM | CCc1c(-c2ccnc3[nH]ncc23)[nH]c2ccc(N3CCN(C4CCN(C(C)C)CC4)CC3)cc12 [Example 159, 4-(3-ethyl-5-(4-(1-isopropylpiperidin-4-yl)piperazin-1-yl)-1H-indol-2-yl)-1H-pyrazolo[3,4-b]pyridine]

Continued, molecule first:

Row | SMILES | IC50 [1] | IC50 [2] | IC50 [3]
9 | CCc1c(-c2ccc(OC)c(OC)c2)[nH]c2cc(C)c(N3CCN(CCNC)CC3)cc12 [Example 144, 2-(4-(2-(3,4-dimethoxyphenyl)-3-ethyl-6-methyl-1H-indol-5-yl)piperazin-1-yl)-N-methylethan-1-amine] | 45 nM | 45 nM | 952 nM
10 | C#CCCCN1CCN(c2ccc3[nH]c(-c4ccc(OC)c(OC)c4)c(C(C)C)c3c2)CC1 [Example 146, 2-(3,4-dimethoxyphenyl)-3-isopropyl-5-(4-(pent-4-yn-1-yl)piperazin-1-yl)-1H-indole] | 206 nM | 12 nM | 1950 nM
11 | COc1ccc(-c2[nH]c3ccc(N4CCN(C5CCN(C)CC5)CC4)cc3c2C)cc1OC [Example 149, 2-(3,4-dimethoxyphenyl)-3-methyl-5-(4-(1-methylpiperidin-4-yl)piperazin-1-yl)-1H-indole] | 681 nM | 62 nM | 727 nM
12 | CCc1c(-c2ccc(OC)c(OC)c2)[nH]c2ccc(N3CCN(CCNC)CC3(C)C)cc12 [Example 150, 2-(4-(2-(3,4-dimethoxyphenyl)-3-ethyl-1H-indol-5-yl)-3,3-dimethylpiperazin-1-yl)-N-methylethan-1-amine] | 360 nM | 102 nM | 425 nM
13 | Cc1c(-c2ccnc3[nH]ccc23)[nH]c2ccc(N3CCN(C4CCN(C(C)C)CC4)CC3)cc12 [Example 151, 4-(5-(4-(1-isopropylpiperidin-4-yl)piperazin-1-yl)-3-methyl-1H-indol-2-yl)-1H-pyrrolo[2,3-b]pyridine] | 4230 nM | 47500 nM | 327 nM
14 | CCc1c(-c2cc(OC)nc(OC)c2)[nH]c2ccc(N3CCN(C4CCN(C)CC4)CC3)cc12 [Example 156, 2-(2,6-dimethoxypyridin-4-yl)-3-ethyl-5-(4-(1-methylpiperidin-4-yl)piperazin-1-yl)-1H-indole] | 52 nM | 6.6 nM | 597 nM
15 | Cc1c(-c2ccnc3[nH]ccc23)[nH]c2ccc(N3CCN(C4CCN(CC(C)C)CC4)CC3)cc12 [Example 158, 4-(5-(4-(1-isobutylpiperidin-4-yl)piperazin-1-yl)-3-methyl-H-indol-2-yl)-1H-pyrrolo[2,3-b]pyridine] | 12500 nM | 45400 nM | 198 nM
